Experimental data from patent publication US20080161288A1, “COMPOUNDS” (Pfizer Inc., priority 2006, published 2008).

Columns and labels:
[1] = target: T1, bovine beta-2 adrenoceptor (Bos taurus, UniProt Q28044); test: cAMP assay in CHO cells transfected with the bovine beta-2 adrenoceptor; type: cell-based; conditions: cAMP (DiscoveRx Hit Hunter cAMP II) in CHO cells transfected with bovine beta-2 adrenoceptor, 30 minutes with compound, 0.5 mM IBMX
T1 construct: expressed in transfected cells; host or cells: CHO cells
Protocol: (§1) CHO cells transfected with the bovine or porcine beta-2 adrenceptors were maintained in culture in DMEM/HAMS F12+10% FBS+2 mM glutamine+500 μg/ml geneticin (for the porcine receptor the medium was supplement with 1.5 mM HEPES) at 37° C. with a 5% CO2 atmosphere.
(§2) Cells were plated into 96 well viewplates in medium and incubated overnight at 37° C. with a 5% CO2 atmosphere. The cells were pre-incubated with 0.5 mM IBMX in PBS for 30 minutes prior to incubation with increasing concentrations of experimental compound (5×10^−12 to 10^−5 M) for 30 minutes at 37° C. with a 5% CO2 atmosphere. At the end of the incubation time the compound was removed and the cells assayed for cAMP using the DiscoveRx Hit Hunter cAMP II™ assay kit.
(§3) Duplicate samples were run for each experimental compound and the data generated was analysed using EC50 analysis software in Graphpad Prism.

[2] = target: T2, porcine beta-2 adrenoceptor (Sus scrofa, UniProt Q28997); test: cAMP assay in CHO cells transfected with the porcine beta-2 adrenoceptor; type: cell-based; conditions: cAMP (DiscoveRx Hit Hunter cAMP II) in CHO cells transfected with porcine beta-2 adrenoceptor, 30 minutes with compound, 0.5 mM IBMX
T2 construct: expressed in transfected cells; host or cells: CHO cells
Protocol: as §1, §2, §3

T2 sequence (Q28997 whole entry): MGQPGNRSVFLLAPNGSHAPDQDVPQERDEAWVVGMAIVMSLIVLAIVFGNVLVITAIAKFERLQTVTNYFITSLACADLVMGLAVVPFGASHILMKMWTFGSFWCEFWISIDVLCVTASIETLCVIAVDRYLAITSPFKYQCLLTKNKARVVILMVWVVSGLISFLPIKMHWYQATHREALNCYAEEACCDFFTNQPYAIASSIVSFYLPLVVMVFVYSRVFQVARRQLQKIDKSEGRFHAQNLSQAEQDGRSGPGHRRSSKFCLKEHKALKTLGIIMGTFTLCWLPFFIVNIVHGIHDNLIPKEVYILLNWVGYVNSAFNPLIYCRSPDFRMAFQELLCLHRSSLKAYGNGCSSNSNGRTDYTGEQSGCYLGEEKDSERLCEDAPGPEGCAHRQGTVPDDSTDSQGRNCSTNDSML
T1 sequence (Q28044 whole entry): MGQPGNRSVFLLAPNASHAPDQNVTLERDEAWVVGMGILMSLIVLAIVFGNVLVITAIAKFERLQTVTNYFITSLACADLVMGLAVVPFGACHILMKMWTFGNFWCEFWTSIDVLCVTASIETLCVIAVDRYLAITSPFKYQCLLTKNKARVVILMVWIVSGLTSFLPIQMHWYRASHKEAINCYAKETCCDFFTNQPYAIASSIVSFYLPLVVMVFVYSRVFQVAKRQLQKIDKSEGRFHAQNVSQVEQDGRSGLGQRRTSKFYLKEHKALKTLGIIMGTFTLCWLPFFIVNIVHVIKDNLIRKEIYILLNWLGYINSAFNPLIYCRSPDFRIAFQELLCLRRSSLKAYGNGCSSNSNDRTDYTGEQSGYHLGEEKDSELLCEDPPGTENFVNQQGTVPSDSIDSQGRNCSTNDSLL

SMILES | EC50 [1] | EC50 [2]
CC(CCc1cccc(O)c1Cl)N[C@@H]1CCn2c(=O)[nH]c3cccc(c32)[C@H]1O (single isomer, unassigned) [Example 50, 6-{[3-(2-Chloro-3-hydroxyphenyl)-1-methylpropyl]amino}-7-hydroxy-4,5,6,7-tetrahydroimidazo[4,5,1-jk][1]benzazepin-2(1H)-one] | 1.7 nM | 1.3 nM
CC(CCc1cc(F)ccc1O)N[C@@H]1CCn2c(=O)[nH]c3cccc(c32)[C@H]1O (single isomer, unassigned) [Example 7a, 6-{[3-(5-Fluoro-2-hydroxyphenyl)-1-methylpropyl]amino}-7-hydroxy-4,5,6,7-tetrahydroimidazo[4,5,1-jk][1]benzazepin-2(1H)-one] | 77.7 nM | 104 nM
CC(CCc1cc(Cl)ccc1O)N[C@@H]1CCn2c(=O)[nH]c3cccc(c32)[C@H]1O (single isomer, unassigned) [Example 19a, 6-{[3(5-Chloro-2-hydroxyphenyl)-1-methylpropyl]amino}-7-hydroxy-4,5,6,7-tetrahydroimidazo[4,5,1-jk][1]benzazepin-2(1H)-one] | 0.6 nM | 0.9 nM
CC(C=Cc1cccc(O)c1)NC1CCn2c(=O)[nH]c3cccc(c32)C1O (stereo not shown) [Example 41, 7-Hydroxy-6-{[3-(3-hydroxyphenyl)-1-methylprop-2-en-1-yl]amino}-4,5,6,7-tetrahydroimidazo[4,5,1-jk][1]benzazepin-2(1H)-one] | 13.3 nM | 6.6 nM
CC(CCc1ccc(Cl)cc1O)N[C@@H]1CCn2c(=O)[nH]c3cccc(c32)[C@H]1O (mixture of isomers) [Example 26, 6-{[3-(4-Chloro-2-hydroxyphenyl)-1-methylpropyl]amino}-7-hydroxy-4,5,6,7-tetrahydroimidazo[4,5,1-jk][1]benzazepin-2(1H)-one] | 3.1 nM | 1.7 nM
CC(CCc1c(Cl)ccc(O)c1Cl)NC1CCn2c(=O)[nH]c3cccc(c32)C1O (single isomer, unassigned) [Example 55] | 4.3 nM | 2.7 nM
CC(CCc1ccc(O)cc1)N[C@@H]1CCn2c(=O)[nH]c3cccc(c32)[C@H]1O (single isomer, unassigned) [Example 2a, 7-Hydroxy-6-{[3-(4-hydroxyphenyl)-1-methylpropyl]amino}-4,5,6,7-tetrahydroimidazo[4,5,1-jk][1]benzazepin-2(1H)-on] | 13.4 nM | 6.1 nM
CC(CCc1ccccc1O)N[C@@H]1CCn2c(=O)[nH]c3cccc(c32)[C@H]1O (single isomer, unassigned) [Example 6d, 7-Hydroxy-6-{[3-(2-hydroxyphenyl)-1-methylpropyl]amino}-4,5,6,7-tetrahydroimidazo[4,5,1-jk][1]benzazepin-2(1H)-one] | 315 nM | 410 nM
CC(CCc1ccc(F)cc1)N[C@@H]1CCn2c(=O)[nH]c3cccc(c32)[C@H]1O (mixture of isomers) [Example 23, 6-{[3-(4-Fluorophenyl)-1-methylpropyl]amino}-7-hydroxy-4,5,6,7-tetrahydroimidazo[4,5,1-jk][1]benzazepin-2(1H)-one] | 15.8 nM | 10.5 nM
Cc1ccccc1CCC(C)NC1CCn2c(=O)[nH]c3cccc(c32)C1O (stereo not shown) [Example 13a, 7-hydroxy-6-{[1-Methyl-3-(2-methylphenyl)propyl]amino}-4,5,6,7-tetrahydroimidazo[4,5,1-jk][1]benzazepin-2(1H)-one] | 4.3 nM | 3.9 nM
CC(CCc1cccc(Cl)c1O)N[C@@H]1CCn2c(=O)[nH]c3cccc(c32)[C@H]1O (single isomer, unassigned) [Example 5b, 6-{[3-(3-Chloro-2-hydroxyphenyl)-1-methylpropyl]amino}-7-hydroxy-4,5,6,7-tetrahydroimidazo[4,5,1-jk][1]benzazepin-2(1H)-one] | 1.6 nM | 2.9 nM
CC(CCc1ccc2c(c1)CCO2)N[C@@H]1CCn2c(=O)[nH]c3cccc(c32)[C@H]1O (single isomer, unassigned) [Example 3c, 6-{[3-(2,3-Dihydro-1-benzofuran-5-yl)-1-methylpropyl]amino}-7-hydroxy-4,5,6,7-tetrahydroimidazo[4,5,1-jk][1]benzazepin-2(1H)-one] | 27.1 nM | 5.6 nM
CC(CCc1cc(Cl)ccc1O)N[C@@H]1CCn2c(=O)[nH]c3cccc(c32)[C@H]1O (single isomer, unassigned) [Example 19b, 6-{[3-(5-Chloro-2-hydroxyphenyl)-1-methylpropyl]amino}-7-hydroxy-4,5,6,7-tetrahydroimidazo[4,5,1-jk][1]benzazepin-2(1H)-one] | 123 nM | 101 nM
C[C@H](CCc1cccc(N)c1)N[C@@H]1CCn2c(=O)[nH]c3cccc(c32)[C@H]1O (single isomer, unassigned) [Example 46, 6-{[3-(3-Aminophenyl)-1-methylpropyl]amino}-7-hydroxy-4,5,6,7-tetrahydroimidazo[4,5,1-jk][1]benzazepin-2(1H)-one] | 33.8 nM | 28.9 nM
CC(CC(C)(C)c1ccccc1)N[C@@H]1CCn2c(=O)[nH]c3cccc(c32)[C@H]1O (single isomer, unassigned) [Example 14b, 6-[(1,3-Dimethyl-3-phenylbutyl)amino]-7-hydroxy-4,5,6,7-tetrahydroimidazo[4,5,1-jk][1]benzazepin-2(1H)-one] | 3.4 nM | 4.2 nM
CC(CCc1cccc(C(F)(F)F)c1)N[C@@H]1CCn2c(=O)[nH]c3cccc(c32)[C@H]1O (mixture of isomers) [Example 30, 7-Hydroxy-6-({1-methyl-3-[3-(trifluoromethyl)phenyl]propyl}amino)-4,5,6,7-tetrahydroimidazo[4,5,1-jk][1]benzazepin-2(1H)-one] | 37.1 nM | 5.5 nM
CC(CCc1ccccc1OC(C)C)NC1CCn2c(=O)[nH]c3cccc(c32)C1O (stereo not shown) [Example 35, 7-Hydroxy-6-{[3-(2-isopropoxyphenyl)-1-methylpropyl]amino}-4,5,6,7-tetrahydroimidazo[4,5,1-jk][1]benzazepin-2(1H)-one] | 7.3 nM | 1.8 nM
CC(CCc1ccc(O)cc1)N[C@@H]1CCn2c(=O)[nH]c3cccc(c32)[C@H]1O (single isomer, unassigned) [Example 2b, 7-Hydroxy-6-{[3-(4-hydroxyphenyl)-1-methylpropyl]amino}-4,5,6,7-tetrahydroimidazo[4,5,1-jk][1]benzazepin-2(1H)-on] | 298 nM | 121 nM
COc1cccc(CCC(C)N[C@@H]2CCn3c(=O)[nH]c4cccc(c43)[C@H]2O)c1O (single isomer, unassigned) [Example 8a, 7-hydroxy-6-{[3-(2-hydroxy-3-methoxyphenyl)-1-methylpropyl]amino}-4,5,6,7-tetrahydroimidazo[4,5,1-jk][1]benzazepin-2(1H)-one] | 200 nM | 172 nM
COc1ccc(CCC(C)NC2CCn3c(=O)[nH]c4cccc(c43)C2O)cc1 (stereo not shown) [Example 34, 7-Hydroxy-6-{[3-(4-methoxyphenyl)-1-methylpropyl]amino}-4,5,6,7-tetrahydroimidazo[4,5,1-jk][1]benzazepin-2(1H)-one] | 20.3 nM | 30.4 nM
COc1cccc(CCC(C)N[C@@H]2CCn3c(=O)[nH]c4cccc(c43)[C@H]2O)c1O (single isomer, unassigned) [Example 8b, 7-hydroxy-6-{[3-(2-hydroxy-3-methoxyphenyl)-1-methylpropyl]amino}-4,5,6,7-tetrahydroimidazo[4,5,1-jk][1]benzazepin-2(1H)-one] | 0.7 nM | 1.1 nM
CC(CCc1cc(C#N)ccc1O)N[C@@H]1CCn2c(=O)[nH]c3cccc(c32)[C@H]1O (mixture of isomers) [Example 22, 4-Hydroxy-3-(3-{[7-hydroxy-2-oxo-1,2,4,5,6,7-hexahydroimidazo[4,5,1-jk][1]benzazepin-6-yl]amino}butyl)benzonitrile] | 1.2 nM | 2.3 nM
CC(CCc1ccc(OC(C)C)cc1)N[C@@H]1CCn2c(=O)[nH]c3cccc(c32)[C@H]1O (mixture of isomers) [Example 16, 7-Hydroxy-6-{[3-(4-isopropoxyphenyl)-1-methylpropyl]amino}-4,5,6,7-tetrahydroimidazo[4,5,1-jk][1]benzazepin-2(1H)-one] | 17.3 nM | 5.5 nM
CC(CCc1cccc(C(N)=O)c1)NC1CCn2c(=O)[nH]c3cccc(c32)C1O (single isomer, unassigned) [Example 66, 3-[3-{[7-Hydroxy-2-oxo-1,2,4,5,6,7-hexahydroimidazo[4,5,1-jk][1]benzazepin-6-yl]amino}butyl]benzamide] | 137 nM | 141 nM
CC(CC(C)(C)c1ccccc1)N[C@@H]1CCn2c(=O)[nH]c3cccc(c32)[C@H]1O (single isomer, unassigned) [Example 14a, 6-[(1,3-Dimethyl-3-phenylbutyl)amino]-7-hydroxy-4,5,6,7-tetrahydroimidazo[4,5,1-jk][1]benzazepin-2(1H)-one] | 428 nM | 385 nM
CC(CCc1cc(C(F)(F)F)ccc1O)N[C@@H]1CCn2c(=O)[nH]c3cccc(c32)[C@H]1O (mixture of isomers) [Example 31, 7-Hydroxy-6-({3-[2-hydroxy-5-(trifluoromethyl)phenyl]-1-methylpropyl}amino)-4,5,6,7-tetrahydroimidazo[4,5,1-jk][1]benzazepin-2(1H)-one] | 27.2 nM | 8.1 nM
